# In the supplement of paper PMC10307832:
# Legend:
# Test in all cases: relative viability (nuclei count vs DMSO), 5 days (fraction); higher = more cells survive
# A-427 = system: A-427
# Method in brief: (§1)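 For relative viability, nuclei counts in treated wells were divided by those in vehicle wells. Lung cancer cell lines had been pin-tool dosed in 1536-well plates the day after seeding and cultured for 5 days, then fixed and stained in one step (final 0.05% Triton X-100, 1% formaldehyde, 1 ug/ml Hoechst) and imaged at 4×. Doses were one drug alone or a fixed anchor-drug dose plus five library-drug doses (not always all listed) in √10 steps, and values are duplicate-plate medians.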
# NCI-H1975 = system: NCI-H1975
# Method in brief: as §1
# NCI-H1563 = system: NCI-H1563
# Method in brief: as §1
# NCI-H1755 = system: NCI-H1755
# Method in brief: as §1
# HCC-366 = system: HCC-366
# Method in brief: as §1
# NCI-H520 = system: NCI-H520
# Method in brief: as §1
# ChaGo-K-1 = system: ChaGo-K-1
# Method in brief: as §1
# NCI-H1734 = system: NCI-H1734
# Method in brief: as §1
# NCI-H2170 = system: NCI-H2170
# Method in brief: as §1
# NCI-H23 = system: NCI-H23
# Method in brief: as §1
# NCI-H1666 = system: NCI-H1666
# Method in brief: as §1
# EKVX = system: EKVX
# Method in brief: as §1
# EMC-BAC-2 = system: EMC-BAC-2
# Method in brief: as §1
# PC-3 [JPC-3] = system: PC-3 [JPC-3]
# Method in brief: as §1
# SK-MES-1 = system: SK-MES-1
# Method in brief: as §1
# LK-2 = system: LK-2
# Method in brief: as §1
# NCI-H441 = system: NCI-H441
# Method in brief: as §1
# SW 900 = system: SW 900
# Method in brief: as §1
# LOU-NH91 = system: LOU-NH91
# Method in brief: as §1
# COR-L 105 = system: COR-L 105
# Method in brief: as §1
# NCI-H596 = system: NCI-H596
# Method in brief: as §1
# H3255 = system: H3255
# Method in brief: as §1
smiles,measurement,setting,value
NC(=O)Nc1cc(-c2cccc(F)c2)sc1C(=O)N[C@H]1CCCNC1 [AZD7762] + COc1cc2c(Oc3ccc(NC(=O)C4(C(=O)Nc5ccc(F)cc5)CC4)cc3F)ccnc2cc1OCCCN1CCOCC1 [Foretinib] (partner 0.25 µM),relative viability,A-427; first compound 0.01 µM,1.08
same,relative viability,A-427; first compound 0.03162 µM,0.976
same,relative viability,A-427; first compound 0.1 µM,1.03
same,relative viability,A-427; first compound 0.3162 µM,0.781
same,relative viability,A-427; first compound 1 µM,0.755
same,relative viability,NCI-H1975; first compound 0.01 µM,0.926
same,relative viability,NCI-H1975; first compound 0.03162 µM,0.943
same,relative viability,NCI-H1975; first compound 0.1 µM,0.964
same,relative viability,NCI-H1975; first compound 0.3162 µM,0.854
same,relative viability,NCI-H1975; first compound 1 µM,0.624
same,relative viability,NCI-H1563; first compound 0.01 µM,1.04
same,relative viability,NCI-H1563; first compound 0.03162 µM,0.967
same,relative viability,NCI-H1563; first compound 0.1 µM,0.974
same,relative viability,NCI-H1563; first compound 0.3162 µM,0.94
same,relative viability,NCI-H1563; first compound 1 µM,0.83
same,relative viability,NCI-H1755; first compound 0.01 µM,0.908
same,relative viability,NCI-H1755; first compound 0.03162 µM,0.96
same,relative viability,NCI-H1755; first compound 0.1 µM,0.921
same,relative viability,NCI-H1755; first compound 0.3162 µM,0.918
same,relative viability,NCI-H1755; first compound 1 µM,0.473
same,relative viability,HCC-366; first compound 0.01 µM,0.954
same,relative viability,HCC-366; first compound 0.03162 µM,0.927
same,relative viability,HCC-366; first compound 0.1 µM,0.978
same,relative viability,HCC-366; first compound 0.3162 µM,0.973
same,relative viability,HCC-366; first compound 1 µM,0.312
same,relative viability,NCI-H520; first compound 0.01 µM,0.989
same,relative viability,NCI-H520; first compound 0.03162 µM,0.826
same,relative viability,NCI-H520; first compound 0.1 µM,0.803
same,relative viability,NCI-H520; first compound 0.3162 µM,0.518
same,relative viability,NCI-H520; first compound 1 µM,0.351
same,relative viability,ChaGo-K-1; first compound 0.01 µM,0.924
same,relative viability,ChaGo-K-1; first compound 0.03162 µM,0.937
same,relative viability,ChaGo-K-1; first compound 0.1 µM,1.02
same,relative viability,ChaGo-K-1; first compound 0.3162 µM,0.899
same,relative viability,ChaGo-K-1; first compound 1 µM,0.976
same,relative viability,NCI-H1734; first compound 0.01 µM,0.979
same,relative viability,NCI-H1734; first compound 0.03162 µM,0.97
same,relative viability,NCI-H1734; first compound 0.1 µM,0.929
same,relative viability,NCI-H1734; first compound 0.3162 µM,0.807
same,relative viability,NCI-H1734; first compound 1 µM,0.436
same,relative viability,NCI-H2170; first compound 0.01 µM,0.925
same,relative viability,NCI-H2170; first compound 0.03162 µM,1.06
same,relative viability,NCI-H2170; first compound 0.1 µM,0.984
same,relative viability,NCI-H2170; first compound 0.3162 µM,1.04
same,relative viability,NCI-H2170; first compound 1 µM,1.13
same,relative viability,NCI-H23; first compound 0.01 µM,0.886
same,relative viability,NCI-H23; first compound 0.03162 µM,1.09
same,relative viability,NCI-H23; first compound 0.1 µM,0.976
same,relative viability,NCI-H23; first compound 0.3162 µM,1.11
same,relative viability,NCI-H23; first compound 1 µM,0.366
same,relative viability,NCI-H1666; first compound 0.01 µM,1.03
same,relative viability,NCI-H1666; first compound 0.03162 µM,1.07
same,relative viability,NCI-H1666; first compound 0.1 µM,1.14
same,relative viability,NCI-H1666; first compound 0.3162 µM,1.12
same,relative viability,NCI-H1666; first compound 1 µM,0.849
same,relative viability,EKVX; first compound 0.01 µM,0.64
same,relative viability,EKVX; first compound 0.03162 µM,0.741
same,relative viability,EKVX; first compound 0.1 µM,0.956
same,relative viability,EKVX; first compound 0.3162 µM,0.387
same,relative viability,EKVX; first compound 1 µM,0.522
same,relative viability,EMC-BAC-2; first compound 0.01 µM,1.08
same,relative viability,EMC-BAC-2; first compound 0.03162 µM,1
same,relative viability,EMC-BAC-2; first compound 0.1 µM,1.08
same,relative viability,EMC-BAC-2; first compound 0.3162 µM,1.04
same,relative viability,EMC-BAC-2; first compound 1 µM,0.89
same,relative viability,PC-3 [JPC-3]; first compound 0.01 µM,1.06
same,relative viability,PC-3 [JPC-3]; first compound 0.03162 µM,1.06
same,relative viability,PC-3 [JPC-3]; first compound 0.1 µM,1.04
same,relative viability,PC-3 [JPC-3]; first compound 0.3162 µM,1.13
same,relative viability,PC-3 [JPC-3]; first compound 1 µM,1.02
same,relative viability,SK-MES-1; first compound 0.01 µM,0.83
same,relative viability,SK-MES-1; first compound 0.03162 µM,0.973
same,relative viability,SK-MES-1; first compound 0.1 µM,1.02
same,relative viability,SK-MES-1; first compound 0.3162 µM,0.903
same,relative viability,SK-MES-1; first compound 1 µM,0.528
same,relative viability,LK-2; first compound 0.01 µM,1.38
same,relative viability,LK-2; first compound 0.03162 µM,1.34
same,relative viability,LK-2; first compound 0.1 µM,1.11
same,relative viability,LK-2; first compound 0.3162 µM,0.864
same,relative viability,LK-2; first compound 1 µM,0.722
same,relative viability,NCI-H441; first compound 0.01 µM,1.3
same,relative viability,NCI-H441; first compound 0.03162 µM,1.07
same,relative viability,NCI-H441; first compound 0.1 µM,1.11
same,relative viability,NCI-H441; first compound 0.3162 µM,1.19
same,relative viability,NCI-H441; first compound 1 µM,0.955
same,relative viability,SW 900; first compound 0.01 µM,0.777
same,relative viability,SW 900; first compound 0.03162 µM,0.84
same,relative viability,SW 900; first compound 0.1 µM,1.29
same,relative viability,SW 900; first compound 0.3162 µM,0.825
same,relative viability,SW 900; first compound 1 µM,0.533
same,relative viability,LOU-NH91; first compound 0.01 µM,0.925
same,relative viability,LOU-NH91; first compound 0.03162 µM,0.947
same,relative viability,LOU-NH91; first compound 0.1 µM,0.96
same,relative viability,LOU-NH91; first compound 0.3162 µM,0.93
same,relative viability,LOU-NH91; first compound 1 µM,0.737
same,relative viability,COR-L 105; first compound 0.01 µM,1.25
same,relative viability,COR-L 105; first compound 0.03162 µM,1.01
same,relative viability,COR-L 105; first compound 0.1 µM,1.01
same,relative viability,COR-L 105; first compound 0.3162 µM,1.09
same,relative viability,COR-L 105; first compound 1 µM,0.643
same,relative viability,NCI-H596; first compound 0.01 µM,0.993
same,relative viability,NCI-H596; first compound 0.03162 µM,1.04
same,relative viability,NCI-H596; first compound 0.1 µM,1.01
same,relative viability,NCI-H596; first compound 0.3162 µM,0.923
same,relative viability,NCI-H596; first compound 1 µM,0.744
same,relative viability,H3255; first compound 0.01 µM,1.12
same,relative viability,H3255; first compound 0.03162 µM,0.875
same,relative viability,H3255; first compound 0.1 µM,0.972
same,relative viability,H3255; first compound 0.3162 µM,0.89
same,relative viability,H3255; first compound 1 µM,0.859
